Results published in ChEMBL document CHEMBL1130903, “Preparation of difluoro analogs of CCGs and their pharmacological evaluations” (Bioorg Med Chem Lett, 1998).

What was measured:
[1] = target: T1, Glutamate NMDA receptor (Rattus norvegicus) (UniProt P35439+Q00959+Q00960+Q00961+Q62645+Q8VHN2+Q9R1M7); test: (§1) Relative activity in depolarization to its corresponding CCG(CCG=1) isomer; assay type: protein-complex assay
[2] = target: T1, Glutamate NMDA receptor (Rattus norvegicus); test: Depolarizing activity against NMDA receptor in isolated spinal cord of newborn rat.; assay type: protein-complex assay
[3] = target: Metabotropic glutamate receptor 1 (Rattus norvegicus) (UniProt P23385); test: as §1
[4] = target: Metabotropic glutamate receptor 1 (Rattus norvegicus) (UniProt P23385); test: Depolarizing activity against mGluR-I receptor in isolated spinal cord of newborn rat.; assay type: tissue-based

Sequence of Metabotropic glutamate receptor 1 (Rattus norvegicus) (P23385 19-1199 limits assumed): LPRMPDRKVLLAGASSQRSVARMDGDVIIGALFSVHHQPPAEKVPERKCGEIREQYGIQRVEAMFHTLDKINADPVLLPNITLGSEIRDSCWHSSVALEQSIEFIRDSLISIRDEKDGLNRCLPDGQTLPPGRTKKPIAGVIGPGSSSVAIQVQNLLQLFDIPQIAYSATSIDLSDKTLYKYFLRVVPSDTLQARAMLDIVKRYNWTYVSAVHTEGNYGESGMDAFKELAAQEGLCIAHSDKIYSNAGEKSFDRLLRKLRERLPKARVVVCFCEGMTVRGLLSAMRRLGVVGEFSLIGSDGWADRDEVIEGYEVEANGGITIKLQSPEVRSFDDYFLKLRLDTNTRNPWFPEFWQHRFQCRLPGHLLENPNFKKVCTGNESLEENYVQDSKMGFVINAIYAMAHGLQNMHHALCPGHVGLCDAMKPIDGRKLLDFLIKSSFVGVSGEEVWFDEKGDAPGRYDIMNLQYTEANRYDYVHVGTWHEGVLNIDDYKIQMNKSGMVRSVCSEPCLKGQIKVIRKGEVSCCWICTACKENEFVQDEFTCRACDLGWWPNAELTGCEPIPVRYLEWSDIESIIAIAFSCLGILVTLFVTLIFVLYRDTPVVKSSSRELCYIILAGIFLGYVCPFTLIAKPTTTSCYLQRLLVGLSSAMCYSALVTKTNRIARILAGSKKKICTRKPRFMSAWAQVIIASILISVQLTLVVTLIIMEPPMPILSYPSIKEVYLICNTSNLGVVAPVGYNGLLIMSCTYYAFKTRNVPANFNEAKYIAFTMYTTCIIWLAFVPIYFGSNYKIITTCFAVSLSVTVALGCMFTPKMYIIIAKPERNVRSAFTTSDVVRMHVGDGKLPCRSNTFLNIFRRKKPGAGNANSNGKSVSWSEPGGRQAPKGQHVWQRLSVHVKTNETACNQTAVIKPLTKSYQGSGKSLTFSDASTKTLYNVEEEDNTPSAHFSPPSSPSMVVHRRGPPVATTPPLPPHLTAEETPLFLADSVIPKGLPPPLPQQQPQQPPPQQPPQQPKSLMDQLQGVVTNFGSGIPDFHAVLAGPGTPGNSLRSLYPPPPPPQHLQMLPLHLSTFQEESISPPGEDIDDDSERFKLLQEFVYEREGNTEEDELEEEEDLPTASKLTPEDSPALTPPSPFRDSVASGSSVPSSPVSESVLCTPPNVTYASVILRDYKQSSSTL

Structure (SMILES) | Ratio of depolarizing activity [1] | Threshold concentration [2] [µM] | Ratio of depolarizing activity [3] | Threshold concentration [4] [µM]
NC(C(=O)O)[C@@H]1[C@H](C(=O)O)C1(F)F (single isomer, unassigned) | < 0.1 | 1000 |  | 
N[C@H](C(=O)O)[C@@H]1[C@H](C(=O)O)C1(F)F | 2 | 100 |  | 
NC(C(=O)O)[C@H]1[C@@H](C(=O)O)C1(F)F (single isomer, unassigned) | < 0.01 | 1000 |  | 
N[C@@H](C(=O)O)[C@@H]1[C@@H](C(=O)O)C1(F)F | 0.1 | 10 |  | 
N[C@H](C(=O)O)[C@H]1[C@@H](C(=O)O)C1(F)F | 1.5 | 1 |  | 
N[C@@H](C(=O)O)[C@H]1[C@H](C(=O)O)C1(F)F | 1.2 | 30 |  | 
N[C@H](C(=O)O)[C@H]1[C@H](C(=O)O)C1(F)F |  | 300 | 0.5 | 300
N[C@H](C(=O)O)[C@@H]1[C@@H](C(=O)O)C1(F)F |  |  | 3 | 2
